Results from paper PMC3401593 (Journal of Pharmaceutical Sciences, 2009).
Marks after values point to notes of the source that are not given here.

Columns and labels:
P-gp = assay: in vitro; details: human, Caco-2, Papp B–A
[1] = tested on: mdr1a/b (+/+) and mdr1a/b (−/−) mice; details: mouse, in vivo
[2] = mouse, in vivo, sc
in vitro = details: human, Caco-2

Compound | Papp B→A (P-gp) [×10⁻⁶ cm/s] | %MPE, P-gp knockout mice versus wild-type [1] | Area Under the Effect Curve (AUEC), mdr1a/b (+/+) [1] [% MPE × min] | Area Under the Effect Curve (AUEC), mdr1a/b (−/−) [1] | Time of peak %MPE [1] [min] | Levels in liver and kidney tissues, mdr1a/b (−/−) versus mdr1a/b (+/+) mice [2] | AUEC Ratio mdr1a/b (−/−)/mdr1a/b (+/+) [1] | Papp at 0.2 μCi/mL (in vitro) [×10⁻⁶ cm/s]
CCC(=O)C(CC(C)N(C)C)(c1ccccc1)c1ccccc1 (centres unmarked) [Methadone, methadone] | 19.4 ± 1.01 | significantly higher | 1501.85 ± 246.45 | 4099.26 ± 488.58 ^a % MPE × min | 15 | no significant differences | – | –
buprenorphine | – | – | 1943.74 ± 326.81 | 2854.93 ± 325.27 % MPE × min | 45 | – | 1.47 ± 0.3 | –
OC[C@@H](O)[C@@H](O)[C@H](O)[C@H](O)CO [mannitol] | – | – | – | – | – | – | – | 5.21
